± gives the standard deviation of the averaged measurements.
How the values were obtained:
Settings in all cases: 72 h
[1] = system: myeloid leukemia patient primary cells Pat.2; assay: area under dose-response curve (viability, 1 nM-10 uM) (fraction (0-1)); higher = more sensitive
Description: (§1)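 AUC (0–1, higher = more sensitive) of the 5-point dose–response (1 nM–10 µM, 72 h, CellTiter-Glo) in primary AML/CML patient mononuclear cells. 0.030103 is the floor for inactive compounds.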

[2] = system: myeloid leukemia patient primary cells Pat.9; assay: as above
Description: as §1

[3] = system: myeloid leukemia patient primary cells Pat.1; assay: as above
Description: as §1

[4] = system: myeloid leukemia patient primary cells Pat.6; assay: as above
Description: as §1

[5] = system: myeloid leukemia patient primary cells Pat.4; assay: as above
Description: as §1

[6] = system: myeloid leukemia patient primary cells Pat.12; assay: as above
Description: as §1

[7] = system: myeloid leukemia patient primary cells Pat.7; assay: as above
Description: as §1

[8] = system: myeloid leukemia patient primary cells Pat.13; assay: as above
Description: as §1

[9] = system: myeloid leukemia patient primary cells Pat.8; assay: as above
Description: as §1

[10] = system: myeloid leukemia patient primary cells Pat.10; assay: as above
Description: as §1

[11] = system: myeloid leukemia patient primary cells Pat.3; assay: as above
Description: as §1

[12] = system: myeloid leukemia patient primary cells Pat.11; assay: as above
Description: as §1

[13] = system: myeloid leukemia patient primary cells Pat.5; assay: as above
Description: as §1

[14] = system: myeloid leukemia patient primary cells Pat.15; assay: as above
Description: as §1

[15] = system: myeloid leukemia patient primary cells Pat.14; assay: as above
Description: as §1

K-562 [16] = system: K-562
In short: (§2)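 Dose–response data were fitted with a four-parameter log-logistic model. They came from fifteen myeloid leukaemia lines treated in duplicate with five tenfold doses from 1 to 10,000 nM for 72 h at 37 °C with 5% CO2, with ATP viability normalised to vehicle and to a positive control at 10 µM. The IC50 was derived from these fits.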

HEL [17] = system: HEL
In short: as §2

MOLM-13 [18] = system: MOLM-13
In short: as §2

BV-173 [19] = system: BV-173
In short: as §2

THP-1 [20] = system: THP-1
In short: as §2

LAMA-84 [21] = system: LAMA-84
In short: as §2

NOMO-1 [22] = system: NOMO-1
In short: as §2

KG-1 [23] = system: KG-1
In short: as §2

KU-812 [24] = system: KU-812
In short: as §2

MV4-11 [25] = system: MV4-11
In short: as §2

HL-60 [26] = system: HL-60
In short: as §2

SHI-1 [27] = system: SHI-1
In short: as §2

Mono-Mac-6 [28] = system: Mono-Mac-6
In short: as §2

ML-2 [29] = system: ML-2
In short: as §2

KCL-22 [30] = system: KCL-22
In short: as §2

K-562 [31] = assay: cell viability (% survival relative to DMSO control, bortezomib = 0%); higher = less cytotoxic
In short: (§3)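 After 72 h at 37 °C with 5% CO2, cell viability in 384-well plates was measured by CellTiter-Glo luminescence. The plates held compounds pre-printed at 1, 10, 100, 1000 or 10000 nM in duplicate, and cells from 10 AML and 5 CML lines seeded at densities titrated to linear growth. Percent survival is the duplicate mean, normalised to vehicle as 100% and a 10 µM positive control as 0%.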

HEL [32] = assay: as above
In short: as §3

MOLM-13 [33] = assay: as above
In short: as §3

BV-173 [34] = assay: as above
In short: as §3

THP-1 [35] = assay: as above
In short: as §3

LAMA-84 [36] = assay: as above
In short: as §3

NOMO-1 [37] = assay: as above
In short: as §3

KG-1 [38] = assay: as above
In short: as §3

KU-812 [39] = assay: as above
In short: as §3

MV4-11 [40] = assay: as above
In short: as §3

HL-60 [41] = assay: as above
In short: as §3

SHI-1 [42] = assay: as above
In short: as §3

Mono-Mac-6 [43] = assay: as above
In short: as §3

ML-2 [44] = assay: as above
In short: as §3

KCL-22 [45] = assay: as above
In short: as §3

HL-60 [46] = assay: cell viability (% survival relative to DMSO control); higher = less cytotoxic
In short: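 In 384-well plates, the full library was rescreened in duplicate on HL-60 cells in RPMI 1640 with 10% FBS, at 1–10,000 nM in five tenfold concentrations, for 72 h at 37 °C, 5% CO2. Each run also held DMSO or 100 nM of one of three metabolic inhibitors. Viability was measured by CellTiter-Glo and normalised to DMSO wells and to wells with proteasome inhibitor, present at 10 μM. Any area under the curve comes from four-parameter log-logistic fitting with drc and PharmacoGx.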

CS(=O)(=O)N1CCN(Cc2cc3nc(-c4cccc5[nH]ncc45)nc(N4CCOCC4)c3s2)CC1 [Pictilisib]
Settings | IC50 (cell viability) [µM] | area under dose-response curve
BV-173 [19] | > 10 | –
HEL [17] | > 10 | –
HL-60 [26] | 0.0159 | –
K-562 [16] | 1.27 | –
KCL-22 [30] | > 10 | –
KG-1 [23] | > 10 | –
KU-812 [24] | > 10 | –
LAMA-84 [21] | > 10 | –
ML-2 [29] | 9.06 | –
MOLM-13 [18] | 0.969 | –
MV4-11 [25] | 1.19 | –
Mono-Mac-6 [28] | > 10 | –
NOMO-1 [22] | > 10 | –
SHI-1 [27] | 0.987 | –
THP-1 [20] | > 10 | –
[1] | – | < 0.0301
[2] | – | 0.257
[3] | – | 0.538
[4] | – | 0.0368
[5] | – | 0.294
[6] | – | < 0.0301
[7] | – | 0.507
[8] | – | < 0.0301
[9] | – | 0.536
[10] | – | 0.456
[11] | – | 0.519
[12] | – | 0.0959
[13] | – | 0.384
[14] | – | 0.439
[15] | – | 0.529

CC/C=C\C[C@H]1C(=O)CC[C@@H]1CC(=O)OC [Methyl jasmonate]
cell viability [%]
Settings | 1 nM | 10 nM | 100 nM | 1000 nM | 10000 nM
BV-173 [34] | 108 | 111 | 103 | 93.2 | 103
HEL [32] | 97.3 | 99.1 | 114 | 99.5 | 111
HL-60 [41] | 92.7 | 99.1 | 105 | 96.5 | 111
K-562 [31] | 90.2 | 95.9 | 104 | 102 | 91.5
KCL-22 [45] | 109 | 99.9 | 96.9 | 91.9 | 103
KG-1 [38] | 115 | 95.7 | 93.9 | 101 | 105
KU-812 [39] | 99.3 | 108 | 110 | 99.1 | 104
LAMA-84 [36] | 95.6 | 100 | 105 | 98.7 | 110
ML-2 [44] | 115 | 110 | 101 | 99.9 | 108
MOLM-13 [33] | 108 | 113 | 116 | 94.3 | 96.6
MV4-11 [40] | 106 | 104 | 108 | 105 | 101
Mono-Mac-6 [43] | 102 | 101 | 111 | 96.2 | 107
NOMO-1 [37] | 104 | 110 | 101 | 93 | 100
SHI-1 [42] | 98.8 | 94.2 | 90.8 | 99.3 | 98
THP-1 [35] | 103 | 111 | 101 | 95.3 | 106

Settings | IC50 (cell viability) [µM]
BV-173 [19] | > 10
HEL [17] | > 10
HL-60 [26] | > 10
K-562 [16] | > 10
KCL-22 [30] | > 10
KG-1 [23] | > 10
KU-812 [24] | > 10
LAMA-84 [21] | > 10
ML-2 [29] | > 10
MOLM-13 [18] | > 10
MV4-11 [25] | > 10
Mono-Mac-6 [28] | > 10
NOMO-1 [22] | > 10
SHI-1 [27] | > 10
THP-1 [20] | > 10

CCOC(=O)c1ccc(-c2ccc(OC(=O)N(C)Cc3cccc(-c4ccncc4)c3)cc2)cc1 [WWL 113]
cell viability [%], HL-60 [46]
Settings | 0.001 µM | 0.01 µM | 0.1 µM | 1 µM | 10 µM
co-treatment: AZD3965 100 nM | 99.55 ± 0.12 | 98.5 ± 5.4 | 94 ± 15 | 97.8 ± 3.7 | 101 ± 4.3
co-treatment: DMSO vehicle | 106 ± 4.1 | 102 ± 1.1 | 98.3 ± 7.9 | 102.3 ± 0.47 | 102 ± 0.43
co-treatment: GSK2194069 100 nM | 99.6 ± 2 | 96 ± 3.3 | 86.5 ± 14 | 97.09 ± 0.54 | 101 ± 5.2
co-treatment: pictilisib 100 nM | 101.2 ± 0.84 | 103 ± 8.4 | 85.6 ± 17 | 96.7 ± 0.97 | 101 ± 10
